From ChEMBL document CHEMBL1135042, “Structure-activity relationships for analogues of the phenazine-based dual topoisomerase I/II inhibitor XR11576” (Bioorg Med Chem Lett, 2002)

Assays:
NCI-H69 [1] = test: In vitro cytotoxicity against multi-drug resistant human small cell lung carcinoma H69/LX4.; assay type: functional, cell-based
[2] = Ratio of IC50 values against H69/P and […] cell lines.; assay type: functional
NCI-H69 [3] = test: In vitro cytotoxicity against human small cell lung carcinoma H69/P.; assay type: functional, cell-based

Row | Compound | IC50 (NCI-H69 [1]) [nM] | Ratio [2] | IC50 (NCI-H69 [3]) [nM]
1 | CC/N=C(\S)Oc1ccc2c(c1)cc(C(=O)NCCN(C)C)c1nc3ccccc3nc12 | 583 | 1.12 | 519
2 | CN(C)CCNC(=O)c1cccc2ncc(-c3ccc([N+](=O)[O-])cc3)nc12 | 3380 | 1.41 | 2400
3 | CN(C)CCNC(=O)c1cccc2nc(-c3ccccc3)c(-c3ccccc3)nc12 | > 100000 |  | > 100000
4 | CN(C)CCNC(=O)c1cccc2ncc(-c3ccccc3)nc12 | 3590 | 0.9 | 3930
5 | CN(C)CCNC(=O)c1cccc2nc3c(nc12)-c1cccc2cccc-3c12 | 330 | 0.93 | 350
6 | CN(C)CCNC(=O)c1cccc2ncc(-c3ccc4ccccc4c3)nc12 | 1670 | 0.92 | 1820
7 | CN(C)CCNC(=O)c1cc2ccccc2c2nc3ccccc3nc12 | 511 | 1.26 | 406
8 | COc1ccc2c(c1)cc(C(=O)NCCN(C)C)c1nc3ccccc3nc12 | 358 | 1.3 | 282
9 | CN(C)CCNC(=O)c1cc2cc(OC(=O)Nc3ccccc3)ccc2c2nc3ccccc3nc12 | 252 | 2.42 | 104
10 | CN(C)CCNC(=O)c1cc2cc(OCCN3CCOCC3)ccc2c2nc3ccccc3nc12 | 592 | 1.17 | 506
11 | CN(C)CCNC(=O)c1cc2cc(O)ccc2c2nc3ccccc3nc12 | 198 | 2.12 | 94
12 | COCCOc1ccc2c(c1)cc(C(=O)NCCN(C)C)c1nc3ccccc3nc12 | 545 | 1.23 | 445
13 | CN(C)CCNC(=O)c1cc2cc(OCc3ccccc3)ccc2c2nc3ccccc3nc12 | 1580 | 1.29 | 1220
14 | COc1cccc2c1ccc1nc3cccc(C(=O)N[C@@H](C)CN(C)C)c3nc12 | 20 |  | 20
15 | Cc1cccc2nc3c(nc12)c(C(=O)NCCN(C)C)cc1ccccc13 | 320 | 0.8 | 417
16 | CN(C)CCNC(=O)c1cc2cc(OCCCO)ccc2c2nc3ccccc3nc12 | 2030 | 3.87 | 523
17 | CN(C)CCNC(=O)c1cc2cccc([N+](=O)[O-])c2c2nc3ccccc3nc12 | 584 | 1.3 | 458
18 | C#CCOc1ccc2c(c1)cc(C(=O)NCCN(C)C)c1nc3ccccc3nc12 | 613 | 1.4 | 435
19 | CN(C)CCNC(=O)c1cc2cccc(N)c2c2nc3ccccc3nc12 | 345 | 1.33 | 259
